Converted amounts (≈) assume the structure as drawn. “Also recorded” adds a separate entry of the source. Where two headings read alike, the source gives them in different places.
Experiments:
[1] = system: Mycobacterium marinum in broth (Mm-broth); assay: Antibacterial assay, growth of Mm in broth (Mm-broth, luminescence); type: cell-based; conditions: for activity on Mm in broth (in words): screen at 20 μM or dose-response curve; for IC50 / MIC: Mycobacterium marinum, 72 h; for IC50: read-out: IC50 Mm-broth; for MIC: read-out: MIC Mm-broth; for activity on Mm-broth (in words): at respective maximal tested concentration
[2] = system: Mycobacterium marinum (Mm) in infection of Dictyostelium discoideum (Mm-inf); assay: Anti-infective assay, growth of Mm during infection of Dd (Mm-inf, luminescence); type: cell-based; conditions: for activity at 20 µM: vehicle = 1, baseline = 0, hit cut-off <0.5; for IC50: 72 h
[3] = system: Dictyostelium discoideum (Dd-inf); assay: microbe, parasite or virus in culture; type: cell-based; conditions: for normalized residual growth of Dd-inf: 20 μM, vehicle = 1, baseline = 0; for IC50: Dictyostelium discoideum, 72 h, read-out: IC50 Dd-inf (Dd growth); for IC50 / lowest measured value of Dd-inf (normalized residual growth) / activity on Dd growth, Dd-inf (in words): dose-response curve
Mm [4] = assay: Checkerboard assay for synergy with antibiotics
Text: We tested this compound for synergy with rifampicin and isoniazid in a checkerboard assay and additionally tested for synergy between rifampicin and isoniazid.

intracellular Mm = assay: Anti-infective assay with high-content microscopy, area of intracellular Mm; conditions: 20, 10, 2.5 μM, up to 48 h
Experimental: (§1) To monitor both the host and pathogen during the course of infection in a quantitative manner, Dd Ax2(ka) cells expressing mCherry knocked-in at the act5 locus ([Paschke et al., 2019]) were infected as described above with Mm WT stably expressing GFP (Msp:12-GFP). As described above, the day before the experiment, 10^7 amoebae were plated in a 10 cm Petri dish. On the day of the experiment, infection was performed, as described above, in HL5-C at MOI 25 by spinoculation. This was followed by eight washes in HL5-C to clear a maximum of non-internalized bacteria. The infected amoebae were detached mechanically and resuspended in HL5-C with 0.75 U/mL penicillin and 0.75 μg/mL of streptomycin (Gibco). Compounds were diluted in HL5-C to a 10x stock of the final assay concentration and pre-plated in 20 μL into the respective wells of a 96-well μ-plate (iBIDI 96-well μ-plate, 89,626). Subsequently, 7,500 cells per well were added in a volume of 180 μL. Every condition has been plated in at least three technical replicates and at least three biological replicates. The 96-well plate was sealed with a gas permeable seal (4titude, 4ti-0516/96) and centrifuged briefly.
(§2) Microscopy images were acquired at 25°C with a 40X plan Apo objective at selected time points over 48 h on the ImageXpress Micro C® automated microscope (Molecular Devices) in wide field mode. Focus was obtained automatically by autofocusing on the well bottom and plate bottom, at every well and every time point. In a grid of 4 × 5, 20 images per well, corresponding to a range of 500–6,000 cells, have been taken using the Texas-Red channel for Dd expressing mCherry and FITC channel for Mm expressing GFP in each experiment. Image analysis was performed using MetaXpress Custom Module editor software. Objects were effectively segmented by size and intensity. More precisely, amoebae were segmented using a “find blob module” using the Texas-Red channel. To segment the bacteria, the FITC image was first subjected to a light deconvolution with a top hat filter and then segmented using a “find blob module.” Intracellular bacteria and infected amoebae were determined by associating the mask of the amoebae and the bacteria. Several parameters such as intracellular and extracellular bacterial area sum, amoebae area sum, averaged and integrated fluorescence intensity and feature counts of bacteria and amoeba were extracted. The growth curves for the area sum of uninfected amoebae, infected amoebae and intracellular bacteria of independent biological replicates were averaged and plotted using GraphPad Prism (Version 8.0.1).
(§3) Both uninfected Dd and Dd infected with Mm were treated with 20, 10 or 2.5 μM of 17 or 19 and the infection was monitored by collecting microscopy images at five time points for up to 48 h.

Dd Ax2(ka) cells = assay: Anti-infective assay with high-content microscopy, area of uninfected and infected Dd; conditions: 20, 10, 2.5 μM, up to 48 h
Experimental: as §1, §2, §3

Mm [5] = conditions: MIC90 from clinical isolates, cited from earlier work
[6] = AUC of luminescence normalized to vehicle, 4PL regression, read-out: IC50 Mm-inf
[7] = read-out: normalized residual growth of Mm-inf, 20 μM
[8] = read-out: IC50 Mm-inf, 72 h, AUC of luminescence normalized to vehicle, 4PL regression
[9] = at respective maximal tested concentration
[10] = lowest concentration with normalized residual growth plus one SD ≤0, 72 h, read-out: MIC Mm-inf
[11] = ref Woods and Clinical and Laboratory Standards Institute, 2011

SMILES	activity on Mm in broth (in words) [1]	IC50 [2, 6] [µM]	activity on Mm-inf (in words) ([2]; dose-response curve)	normalized residual growth of Dd-inf [3]	growth of intracellular Mm (segmented area, in words) (intracellular Mm)	lowest measured value of Dd-inf (normalized residual growth) [3]	growth of uninfected Dd (segmented area, in words) (Dd Ax2(ka) cells)	IC50 [1] [µM]	activity on Mm-broth (in words) [1]	IC50 [2, 8] [µM]	activity on Mm-inf (in words) [2, 9]	also measured
COc1cc(/C=C/c2ccc(O)cc2)cc(OC)c1 [compound 2, pterostilbene]	inactive on Mm in broth	19.8	validated anti-infectives without antibiotic properties	–0.16								activity at 20 µM ([2]; 20 μM, read-out: normalized residual growth of Mm-inf): 28%; IC50 [3]: 11.1 µM
COc1cc(OC)cc(C2c3cc(C=Cc4cc(O)cc(O)c4)ccc3OC2c2ccc(O)cc2)c1 (stereo not drawn) [compound 17]	no activity on Mm in broth; also recorded: without antibiotic activity; also recorded: did not show any growth inhibition	18.1	dose-dependent activity; also recorded: validated anti-infectives without antibiotic properties	0.91	this effect was weaker							activity on Mm-inf (in words) ([2]; at 20 μM): passed again the 0.5 cut-off; IC50 ([2]; read-out: IC50 Mm-inf, AUC of luminescence normalized to vehicle, 4PL regression): 18.9 µM; activity at 20 µM [2, 7]: 34%; synergy with rifampicin and isoniazid (in words) (Mm [4]): did not find striking synergy; growth of infected Dd (segmented area, in words) (Dd Ax2(ka) cells): this effect was weaker
COc1cc(C=Cc2ccc3c(c2)C(c2cc(O)cc(O)c2)C(c2ccc(O)cc2)O3)cc(OC)c1 (stereo not drawn) [compound 19]	no activity on Mm in broth; also recorded: without antibiotic activity; also recorded: did not show any growth inhibition	9	dose-dependent activity; also recorded: validated anti-infectives without antibiotic properties	–0.22	almost completely inhibited	−0.40	significantly reduced					activity on Mm-inf (in words) ([2]; at 20 μM): passed again the 0.5 cut-off; activity at 20 µM [2, 7]: -32%; IC50 [3]: 12.1 µM; growth of infected Dd (segmented area, in words) (Dd Ax2(ka) cells): almost completely inhibited
COc1ccc([C@H]2Oc3ccc(/C=C/c4cc(O)cc(OC)c4)cc3[C@@H]2c2cc(O)cc(O)c2)cc1 [compound 63]		8.6			infection was well controlled	0.8	only a slight growth inhibition at 20 μM					
COc1cc(O)cc(/C=C/c2ccc3c(c2)[C@H](c2cc(O)cc(OC)c2)[C@@H](c2ccc(O)cc2)O3)c1 [compound 64]		8			infection was well controlled	0.62	only a slight growth inhibition at 20 μM					
CC[C@@H](CO)NCCN[C@@H](CC)CO [ethambutol, reference compound]								1	sterilizing activity	7	sterilizing activity	MIC ([1]; 7H9 broth, 32°C): 3.3 µM (≈ 0.674 µg/mL); MIC ([2]; converted from μM, read-out: MIC in infection): 6.1 µg/mL; MIC [2, 10]: 30 µM; breakpoint of antibacterial susceptibility for Mm (Mm [5]; [11]): 4 µg/mL
CCc1cc(C(N)=S)ccn1 [ethionamide]								0.8	sterilizing activity	4	sterilizing activity	MIC [1]: 3.3 µM (≈ 0.549 µg/mL); breakpoint of antibacterial susceptibility for Mm (Mm [5]; ref Lorian, 2005): 5 µg/mL
CO[C@H]1/C=C/O[C@@]2(C)Oc3c(C)c(O)c4c(c3C2=O)C2=NC3(CCN(CC(C)C)CC3)NC2=C(NC(=O)/C(C)=C\C=C\[C@H](C)[C@H](O)[C@@H](C)[C@@H](O)[C@@H](C)[C@H](OC(C)=O)[C@@H]1C)C4=O [rifabutin]								0.03	sterilizing activity	0.2	sterilizing activity	MIC [1]: 0.01 µM (≈ 0.00847 µg/mL); breakpoint of antibacterial susceptibility for Mm (Mm [5]; [11]): 2 µg/mL; activity on Dd growth, Dd-inf (in words) [3]: affected amoebae growth slightly at the highest tested concentrations
CO[C@H]1/C=C/O[C@@]2(C)Oc3c(C)c(O)c4c(O)c(c(/C=N/N5CCN(C)CC5)c(O)c4c3C2=O)NC(=O)/C(C)=C\C=C\[C@H](C)[C@H](O)[C@@H](C)[C@@H](O)[C@@H](C)[C@H](OC(C)=O)[C@@H]1C [rifampicin, reference compound]								0.1	sterilizing activity	5	sterilizing activity	MIC ([1]; 7H9 broth, 32°C): 1.1 µM (≈ 0.905 µg/mL); MIC [2, 10]: 10 µM; activity on Dd growth, Dd-inf (in words) [3]: affected amoebae growth slightly at the highest tested concentrations

Reference: PMC11443511, “Discovery of anti-infective compounds against Mycobacterium marinum after biotransformation of simple natural stilbenes by a fungal secretome” (Frontiers in Microbiology, 2024)
